Results on eleven molecules are retold here after patent US20260035384A1, “COMPOUND CONTAINING CYCLOHEXYL” (CHIA TAI TIANQING PHARMACEUTICAL GROUP CO., LTD., priority 2022, published 2026).

Positions count from the first letter of the chain named. Where two headings read alike, the source gives them in different places.

For one data set, the system named is LNCaP cells. Put plainly: Assay on inhibitory activity for LNCaP cell proliferation (CCK-8). It counts as cell-based. To be noted: Homo sapiens, 168 h incubation. On the procedure: (§1) LNCaP cells in a good growth state were taken, washed with PBS, digested with pancreatin, and added with 2% CSS—FBS phenol red-free 1640 complete medium to terminate the digestion. The cells were collected by using a centrifuge tube, adjusted to a cell density of 1×10^5 cells/mL, and seeded in a 96-well plate (100 μL/well). Meanwhile, compounds were added using a nanoliter pipettor such that the final concentrations of the compounds were 10000 nM-0.61 nM. Two duplicate wells were set for each concentration, and meanwhile, a control was set. After another 168 h of incubation in the cell incubator, the detection reagent CCK-8 (manufacturer: Dojindo, 10 μL/well) was added.

In a further data set the target is T1, AR in LNCaP cells (Homo sapiens, UniProt P10275, T878A).
T1 construct: Assay on Degradation Activity for AR in LNCaP Cells; endogenous in cells; host or cells: LNCaP cells
T1 sequence (P10275 1-920 T878A): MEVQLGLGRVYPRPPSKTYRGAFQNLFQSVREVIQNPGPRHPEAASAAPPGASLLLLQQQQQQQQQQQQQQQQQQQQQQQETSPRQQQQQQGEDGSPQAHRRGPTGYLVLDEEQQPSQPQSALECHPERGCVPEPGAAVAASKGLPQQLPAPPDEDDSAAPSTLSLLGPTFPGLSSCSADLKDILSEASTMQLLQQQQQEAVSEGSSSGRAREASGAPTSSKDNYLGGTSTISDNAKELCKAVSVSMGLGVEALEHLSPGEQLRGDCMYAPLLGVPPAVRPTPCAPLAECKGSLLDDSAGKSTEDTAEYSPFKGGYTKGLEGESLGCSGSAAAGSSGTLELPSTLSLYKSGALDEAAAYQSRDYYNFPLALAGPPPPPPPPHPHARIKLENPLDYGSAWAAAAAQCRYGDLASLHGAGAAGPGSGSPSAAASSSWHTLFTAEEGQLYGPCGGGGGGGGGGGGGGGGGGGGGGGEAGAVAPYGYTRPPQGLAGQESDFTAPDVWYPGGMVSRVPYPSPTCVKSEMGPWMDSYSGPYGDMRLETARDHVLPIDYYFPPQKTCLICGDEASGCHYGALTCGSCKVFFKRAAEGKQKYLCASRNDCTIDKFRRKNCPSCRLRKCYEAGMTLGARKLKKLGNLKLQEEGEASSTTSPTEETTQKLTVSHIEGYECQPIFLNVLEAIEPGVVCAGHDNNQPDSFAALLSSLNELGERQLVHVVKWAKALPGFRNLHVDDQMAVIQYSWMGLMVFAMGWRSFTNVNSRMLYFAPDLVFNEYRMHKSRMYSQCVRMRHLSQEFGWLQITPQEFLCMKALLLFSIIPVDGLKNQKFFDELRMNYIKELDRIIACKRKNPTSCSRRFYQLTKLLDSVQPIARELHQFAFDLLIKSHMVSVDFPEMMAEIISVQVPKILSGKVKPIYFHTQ
Kind of data set: Assay on degradation activity for AR in LNCaP cells (HTRF human androgen receptor detection kit). To be noted: 24 h incubation; for DC50: HTRF; for Dmax: maximum degradation rate. It is filed as cell-based. On the procedure: (§2) The detection was carried out using the HTRF HUMAN ANDROGEN RECEPTOR DETECTION KIT (cisbio, 64ANDRPEG), 4× Supplemented Lysis buffer was prepared using the Blocking reagent stock solution (100×) and Lysis buffer stock solution (4×), and 1× Supplemented Lysis buffer was prepared using the 4× Supplemented Lysis buffer and ddH2O. Premixed antibody solutions were prepared using Detection buffer, Androgen Receptor Eu Cryptate antibody, and Androgen Receptor d2 antibody.
(§3) LNCaP cells in a good growth state were taken, washed with PBS, digested with pancreatin, and added with 2% CSS—FBS phenol red-free 1640 complete medium to terminate the digestion. The cells were collected by using a centrifuge tube, adjusted to a cell density of 1×10^6 cells/mL, and seeded in a 96-well plate (100 μL/well). The cells were incubated overnight in a cell incubator. Compounds were added using a nanoliter pipettor such that the final concentrations of the compounds were 500 nM-0.488 nM. Two duplicate wells were set for each concentration, and meanwhile, a control was set. After another 24 h of incubation in the cell incubator, the medium was pipetted out, the 1× Supplemented Lysis buffer was added at 40 μL/well to lyse the cells. After the cells were oscillated for 40 min at room temperature, 16 μL of the cell lysate was added to a 384-well plate, the Premixed antibody solutions were added at 4 μL/well, and the mixture was left to stand at 25° C. for 2 h. Fluorescence values were detected at 665 nm/620 nm using an Envision microplate reader, the four-parameter analysis was performed, the dose-response curves were fit, and DC50 (the concentration of the drug when the degradation rate reaches 50%) and Dmax (the maximum degradation rate) were calculated.

The next data set is described as follows: Mouse pharmacokinetics. It is filed as in vivo, ICR mice. To be noted: ICR, mouse, plasma; for AUC: read-out: AUC. On the procedure: ICR mice weighing 18-22 g were randomized into groups of 9 after 3-5 days of acclimatization, and then intragastrically given the test compound solution at a dose of 10 mg/kg and intravenously injected with the test compound solution at a dose of 1 mg/kg.
Blood sampling time points for the intragastrical administration group were 15 min, 0.5 h, 1 h, 2 h, 3 h, 4 h, 6 h, 8 h, 10 h, and 24 h, and blood sampling time points for the intravenous injection administration group were […], 15 min, 0.5 h, 1 h, 2 h, 4 h, 6 h, 8 h, 10 h, and 24 h; blood was collected from the orbit to prepare plasma samples to be tested. 30 μL of each of the plasma samples to be tested and a standard curve sample were taken, and an acetonitrile solution containing an internal standard was added. Supernatants were obtained by protein precipitation, diluted, and then assayed by LC/MS/MS. Pharmacokinetic parameters were fitted using a non-compartmental model (see Table 6).

The test system of a further data set is VCaP cells. Put plainly: Assay on inhibitory activity for VCaP cell proliferation (CCK-8). It is filed as cell-based. The following applies: Homo sapiens, 168 h incubation. As for the experimental part: as §1, with “2.1 Assay on inhibitory activity for VCaP cell proliferation VCaP” for “LNCaP”, “5%” for “2%”, “DMEM” for “1640”
The target in a further data set is T2, AR in VCaP cells (Homo sapiens, UniProt P10275).
T2 construct: Assay on Degradation Activity for AR in VCaP Cells; endogenous in cells; host or cells: VCaP cells
T2 sequence (P10275 1-920): T1 sequence (P10275 1-920 T878A) with A878T
Put plainly: Assay on degradation activity for AR in VCaP cells (HTRF human androgen receptor detection kit). It counts as cell-based. To be noted: 24 h incubation. As for the experimental part:
as §2
as §3, with “VCaP” for “LNCaP”, “DMEM” for “1640”, “µL/well).” for “μL/well).”, “1000 nM-0.977” for “500 nM-0.488”

Setting [1] is: po, 10 mg/kg, Mouse i.g. 10 mpk.

For the molecule `N#Cc1ccc(O[C@H]2CC[C@H](NC(=O)c3ccc(N4CCC(CN5CCc6c(ccc7c(C8CCC(=O)NC8=O)noc67)C5)CC4)nn3)CC2)cc1Cl` (stereo partly drawn) [Compound 19], the IC50 with LNCaP cells was < 1000 nM. Further, at AR in LNCaP cells, the half-maximal degradation concentration (DC50) is ≤ 20 nM and the greatest degradation seen (Dmax) is > 80%. In the data set “Mouse pharmacokinetics” (iv, 1 mg/kg, Mouse i.v. 1 mpk), the clearance was 5.7 mL/min/kg, the half-life is 7.4 h and the AUC amounted to 2600 ng·h/mL. In addition, in “Mouse pharmacokinetics” (setting [1]), the half-life was 49.9 h and the AUC was 10800 ng·h/mL. The bioavailability in the data set “Mouse pharmacokinetics” (po, 10 mg/kg, Mouse i.g. 10 mpk vs i.v. 1 mpk) amounted to 41.6%. Further, the Cmax in the data set “Mouse pharmacokinetics” (po, 10 mg/kg, Mouse i.g. 10 mpk, read-out: Cmax) stood at 562 ng/mL.

Take `N#Cc1ccc(O[C@H]2CC[C@H](NC(=O)c3ccc(N4CCC5(CC4)CC(CN4CCc6ccc7c(C8CCC(=O)NC8=O)noc7c6C4)C5)nn3)CC2)cc1Cl` (stereo partly drawn) [Compound 35]: in the data set with VCaP cells, the 50% inhibitory concentration (IC50) was < 100 nM. Besides, the IC50 in the data set with LNCaP cells was < 1000 nM. Also, at AR in LNCaP cells, the DC50 is ≤ 20 nM and the greatest degradation seen (Dmax) was > 80%.

As to `CN(c1ccc(C#N)c(Cl)c1)[C@H]1CC[C@H](NC(=O)c2ccc(N3CCC(CN4CCc5c(ccc6c(C7CCC(=O)NC7=O)noc56)C4)CC3)cc2)CC1` (stereo partly drawn) [Compound 58], the IC50 was < 10 nM in the data set with VCaP cells and < 1000 nM in the data set with LNCaP cells. In addition, the DC50 at AR in VCaP cells is ≤ 1 nM.

On to `CN(c1ccc(C#N)c(Cl)c1)[C@H]1CC[C@H](NC(=O)c2ccc(N3CCN(CC4Cc5ccc6c(C7CCC(=O)NC7=O)noc6c5C4)CC3)cc2)CC1` (stereo partly drawn) [Compound 71], for which the DC50 on AR in VCaP cells was ≤ 1 nM.

For `N#Cc1ccc(O[C@H]2CC[C@H](NC(=O)c3ccc(N4CCC(N5CC(CN6Cc7ccc8c(C9CCC(=O)NC9=O)noc8c7C6)C5)CC4)cc3)CC2)cc1Cl` (stereo partly drawn) [Compound 80], the DC50 on AR in VCaP cells was ≤ 1 nM.

Take `N#Cc1ccc(O[C@H]2CC[C@H](NC(=O)c3ccc(N4CCC(N5CC(CN6CCc7ccc8c(C9CCC(=O)NC9=O)noc8c7C6)C5)CC4)cc3)CC2)cc1Cl` (stereo partly drawn) [Compound 81]: on AR in VCaP cells, the DC50 is ≤ 1 nM.

With `N#Cc1ccc(O[C@H]2CC[C@H](NC(=O)c3ccc(N4CCC(N5CC(CN6CCc7c(ccc8c(C9CCC(=O)NC9=O)noc78)C6)C5)CC4)cc3)CC2)cc1Cl` (stereo partly drawn) [Compound 82], the IC50 in the data set on LNCaP cells is < 1000 nM. At AR in VCaP cells, the DC50 was ≤ 1 nM.

For `N#Cc1ccc(O[C@H]2CC[C@H](NC(=O)c3ccc(N4CCC(N5CCC(CN6Cc7ccc8c(C9CCC(=O)NC9=O)noc8c7C6)CC5)CC4)nn3)CC2)cc1Cl` (stereo partly drawn) [Compound 86], the DC50 on AR in VCaP cells was ≤ 1 nM.

For the molecule `N#Cc1ccc(O[C@H]2CC[C@H](NC(=O)c3ccc(N4CCC(N5CCC(CN6CCc7ccc8c(C9CCC(=O)NC9=O)noc8c7C6)CC5)CC4)nn3)CC2)cc1Cl` (stereo partly drawn) [Compound 87], the half-maximal degradation concentration (DC50) at AR in VCaP cells is ≤ 1 nM.

Take `N#Cc1ccc(O[C@H]2CC[C@H](NC(=O)c3ccc(N4CCC(N5CCC(CN6CCc7c(ccc8c(C9CCC(=O)NC9=O)noc78)C6)CC5)CC4)nn3)CC2)cc1Cl` (stereo partly drawn) [Compound 88]: in the data set on LNCaP cells, the 50% inhibitory concentration (IC50) was < 1000 nM. Further, the half-maximal degradation concentration (DC50) at AR in VCaP cells was ≤ 1 nM.

For `N#Cc1ccc(O[C@H]2CC[C@H](NC(=O)c3cnc(N4CCC(CN5CCc6ccc7c(C8CCC(=O)NC8=O)noc7c6CC5)CC4)nc3)CC2)cc1Cl` (stereo partly drawn) [Compound 122], in the data set on VCaP cells (VCaP, 168 h), the IC50 was < 100 nM. In addition, the IC50 in the data set with LNCaP cells is < 1000 nM. Further, on AR in LNCaP cells, the DC50 was ≤ 20 nM and the Dmax is > 80%.
